# Measurements as given in patent publication US20250312408A1, “NAP FOR SEX-SPECIFIC TREATMENT OF DISEASES” (RAMOT AT TEL-AVIV UNIVERSITY LTD., priority 2021, published 2025).
# Like-named read-outs stand apart in the source and are kept apart here.
# Key:
# [1] = test system: subjects suffering from amnestic mild cognitive impairment (aMCI); conditions: sexes not separated; cited from earlier work
# PSP patients [2] = conditions: cited from earlier work; for PSP trial outcome, sexes not separated (Boxer et al.): 30 mg twice daily, 52 weeks, whole population
# [3] = test system: subjects with schizophrenia; test: Schizophrenia clinical trial, UCSD Performance-based Skills Assessment (UPSA), analysed separately for males and females; assay type: in vivo, human
# Experimental: Briefly, sixty-three subjects with schizophrenia received davunetide at one of two different doses (5, 30 mg/day) or placebo for 12 weeks in a multicenter, double-blind, parallel-group randomized clinical trial. The MATRICS Consensus Cognitive Battery (MCCB) assessed cognitive effects. The UCSD Performance-based Skills Assessment (UPSA) with maximal score of 100 and the Schizophrenia Cognition Rating Scale (SCoRS) assessed functional capacity. Subjects continued their current antipsychotic treatment during the trial. For UPSA, there was a significant main effect of treatment across study arms (p=0.048). Between-group effect size (d) values were 0.74 and 0.48, favoring the 5 and 30 mg doses, respectively.
# Considering the results obtained for PSP and the involvement of ADNP in both diseases, we analyzed the data separately for males and females with 7-16 subjects per group. […] All in all, the 5 mg daily dose was beneficial for women as detected after 6 and 12 weeks of treatment.
# Hace1 = test: Hippocampal RNA sequencing of Adnp mutated (HTR (Tyr)) mice; assay type: in vivo
# Description: In this model, gait deficits were accentuated in females, and ameliorated by NAP treatment. We discovered a surprising mirror imaging in NAP peptide (davunetide) brain (hippocampus) action in the treated mice as a dependence on mice sex. […] Hace1 is associated with ataxia and Huntington disease and is also involved in depression and Alzheimer's disease. NAP protection (FIG. 11) further attests to sex-dependent treatments of the diseases associated or mediated with Hace1.
# [4] = test system: subjects suffering from amnestic mild cognitive impairment (aMCI); test: aMCI clinical trial, CANTAB Delayed Match-to-Sample (DMTS) test, men and women analysed separately; assay type: in vivo, human; conditions: for effect of treatment on aMCI symptoms: males, 30 mg/day; for DMTS change vs placebo, Student's t test: men only
# Experimental: The subject's task is to select the pattern that matches the original sample, here depicted after a 12 s interval. Thus, subjects suffering from aMCI were treated with either 5 mg daily or 15 mg twice daily (BID) by intranasal davunetide administration (1 or three puffs of the same strength davunetide solution). Treatment was for 12 weeks and testing was at baseline and every four weeks, including also 4 weeks after cessation of treatment. When analyzing the data, we separated here men and women for the first time as outlined below. […] We further conclude that much higher dose are required, especially in females.
# PSP patients [5] = test: Phase 2/3 davunetide vs placebo trial in PSP, re-evaluated separating males and females; assay type: in vivo, human
# Experimental: In this example we used results of a clinical trial performed as described in Boxer et al. Shortly, in a double blind, parallel group, phase 2/3 trial, participants were randomly assigned with permuted blocks in a 1:1 ratio to davunetide (NAP, having amino acid sequence […] set forth as SEQ ID NO: 1, 30 mg twice daily, intranasally) or placebo for 52 weeks at 48 centers in Australia, Canada, France, Germany, the UK, and the USA. Participants met the modified Neuroprotection and Natural History in Parkinson Plus Syndrome study criteria for PSP. Primary endpoints were the change from baseline in PSP Rating Scale (PSPRS, 28 items, 6 categories, 0=normal, 100=most disability) and Schwab and England Activities of Daily Living scale (SEADL, 11-point rating scale, 0=vegetative, 100%/=completely independent, 10% increments) at up to 52 weeks. Data collection was at week 0, 6, 13, 26, 39 and 52. All participants and study personnel were masked to treatment assignment. Analysis was by intention to treat. The trial is registered with Clinicaltrials.gov, number NCT01110720. 313 participants were randomly assigned to davunetide (n=157) or to placebo (n=156), and 241 (77%) completed the study (118 and […] in the davunetide and placebo groups, respectively). A secondary outcome was brain ventricular volume as measured with boundary shift integral analysis of T1-weighted magnetic resonance imaging (MRI) scans, mostly collected at week 0 and 52. At the same time, selected patients were also subjected to lumbar puncture and assessment of Tau content and Tau hyperphosphorylation in the cerebrospinal fluid (CSF).
# To further understand disease progression, sex/age/baseline differences and drug influence, we re-evaluated study results, separating males and females, and assessing the primary and secondary endpoints. In this respect, we further assessed individually the 6 disability domains of the PSPRS, namely: daily activities (by history, seven items with a total maximum score of 24), behavior (mentation, emotional, interference with activity of daily living, maximum score of 16), bulbar (speech and swallowing, maximal score of 8), ocular motor (eye and eyelid activity, 16 points), limb motor (fine motor skills including tremor, 16 points) and gait/midline (gross motor skills, 20 points) https://www.physio-pedia.com/Progressive_Supranuclear_Palsy_Rating_Scale_(PSP-RS).
# Statistical considerations: To include the ventricle volumetric measures, the cohort was composed of female and male PSP patients treated with davunetide or placebo (sample sizes for sex-treatment groups at 52 weeks of treatment: 48-55), outcome variables included ventricular volume (will be referred to as volume), PSPRS and SEADL assessed at study initiation and follow up to 52 weeks after twice daily treatment.
# Data analysis was performed using Graph Pad Prism 7.0 software (see FIGS. 1 and 4). Other statistical tests and visualizations were made in R version 4.2.1 (2022-06-23) with the base library, ggplot2 and ggplot2 extension packages. Correlation plots statistics (FIGS. 2, 3 and 5) were computed using the standard Pearson method. The volume change (from FIG. 3) is the difference between the baseline and week-52 measurements. PSPRS, SEADL and ventricular volume in figures (FIG. 5) are represented by differences between the baseline and week-52 measurements, as a percentage of the baseline measurement. FIGS. 6 and 7 give the absolute changes overtime, due to the non-normal distribution of most parameters, statistical significance was measured using the Wilcoxon test. Only extreme values (defined as 3*IQR deviation from the penultimate top/bottom quantiles), were removed from the final calculations. There were only 11 observations that were considered extreme and their influence on our results was insignificant. FIG. 8 representing the geriatric depression scale measure (GDS) was prepared using excel.
# [6] = test system: subjects with schizophrenia; conditions: cited from earlier work; for UPSA score vs placebo (Javitt et al.): 5 mg daily dose; for UPSA between-group effect size (d): 12 weeks, men and women mixed (Javitt et al.)
# [7] = test system: Adnp mutated (HTR (Tyr)) mice; conditions: deficits accentuated in females (Karmon et al.); cited from earlier work
# [8] = males, from week 26 on, 30 mg twice daily
# [9] = woman cohort, very few individuals, exploratory
structure (smiles),measurement,setting,value
CC[C@H](C)[C@H](NC(=O)[C@H](CO)NC(=O)[C@@H](NC(=O)[C@@H]1CCCN1C(=O)[C@H](C)NC(=O)[C@@H](N)CC(N)=O)C(C)C)C(=O)N1CCC[C@H]1C(=O)N[C@@H](CCC(N)=O)C(=O)O [davunetide],cognitive score in aMCI (Morimoto et al.),[1],cognitive score enhancement
same,"PSP trial outcome, sexes not separated (Boxer et al.)",PSP patients [2],did not meet its endpoints
same,"PSP trial outcome, sexes not separated (Boxer et al.)",PSP patients [2]; listed as Davunetide,not an effective treatment
same,safety in the PSP trial (Boxer et al.),PSP patients [2]; in vivo,showing safety
same,"UPSA change, average","[3]; men, 5 mg daily",7.4 points
same,effect on UPSA,"[3]; men, 5 mg daily, especially after 6 weeks",effective
same,effect on UPSA,"[3]; men, 15 mg twice daily (30 mg/day), 12 weeks",significant results
same,effect on UPSA,"[3]; men, 15 mg twice daily (30 mg/day), 12 weeks, listed as NAP",significant improvement
same,"UPSA change, mean","[3]; women, 5 mg daily, 12 weeks",14.9 points
same,effect on UPSA,"[3]; women, 5 mg daily, after 6 and 12 weeks",beneficial
same,UPSA improvement,"[3]; women, 5 mg daily, after 12 weeks",15%
same,effect on UPSA,"[3]; women, 15 mg twice daily (30 mg/day), week 12, vs 5 mg/day P=0.002",significantly lower effect
same,effect on UPSA,"[3]; women, 15 mg twice daily (30 mg/day), week 12, vs 5 mg/day P=0.002, listed as NAP",not observed
same,Hace1 gene/mRNA intron retention event (aberrant alternative splicing),"Hace1; ADNP mutated HTR males, brain hippocampal samples",corrected
same,Hace1 expression as a consequence of NAP treatment,"Hace1; male vs female Adnp mutated mice, hippocampus",sex-specific opposite expression
same,effect of treatment on aMCI symptoms,[4]; listed as NAP,significant improvement
same,effect of treatment on aMCI symptoms,[4]; listed as NAP peptide,statistically significant effect
same,"DMTS change vs placebo, Student's t test",[4]; test week 8,significant difference
same,"DMTS change vs placebo, Student's t test",[4]; week 4 and 16,trending
same,CGIds (Clinical Global Impression of Disease Severity),"PSP patients [5]; davunetide-treated males, P=0.013",deteriorated
same,adverse effects on all other PSPRS domains,PSP patients [5]; females,no adverse effects
same,ventricular volume increase correlating with baseline ventricular volume,"PSP patients [5]; females, 30 mg twice daily intranasally, 52 weeks",complete protection
same,PSPRS change vs placebo,"PSP patients [5]; females, 52 weeks, 30 mg twice daily",trended toward significant improvement
same,disease progression in PSPRS mental behavior domain,"PSP patients [5]; females, over 52 weeks",almost halted
same,SEADL change from baseline vs placebo,"PSP patients [5]; females, starting at week 39 and continuing on 52, P=0.0187 and P=0.00537",significant protective effect
same,effect on oculomotor activities (PSPRS domain),"PSP patients [5]; females, week 6, P=0.0127",transient adverse effect
same,GDS score (geriatric depression) compared to placebo,"PSP patients [5]; females, week 52, Wilcoxon, P=0.023",improved significantly
same,"bulbar domain of the PSPRS (dysarthria, dysphagia) vs placebo","PSP patients [5]; females, week 52, P=0.0222",significant protective effect
same,limb motor skills (PSPRS domain) vs placebo,"PSP patients [5]; females, P=0.0838",partially protected
same,ventricular volume change vs baseline ventricular volume,"PSP patients [5]; males, 30 mg twice daily intranasally, 52 weeks",no drug effects
same,PSPRS change compared to the placebo group,PSP patients [5]; [8],significant increase in PSPRS
same,SEADL change compared to the placebo group,PSP patients [5]; [8],decrease in SEADL
same,percent of baseline ventricular volume change with age vs placebo,"PSP patients [5]; men, 30 mg twice daily intranasally, 52 weeks",No differences
same,percent of baseline ventricular volume change with age vs placebo,"PSP patients [5]; men, 30 mg twice daily intranasally, 52 weeks, listed as NAP peptide",not observed in males
same,phosphorylated Tau in the cerebrospinal fluid (CSF) compared to placebo,PSP patients [5]; [9],trends in total Tau and phosphorylated Tau reduction
same,total Tau in the cerebrospinal fluid (CSF) compared to placebo,PSP patients [5]; [9],trends in total Tau and phosphorylated Tau reduction
same,percent of baseline ventricular volume change with age vs placebo,"PSP patients [5]; women (older woman patients), 30 mg twice daily intranasally, 52 weeks",significant neuroprotective effect
same,percent of baseline ventricular volume change with age vs placebo,"PSP patients [5]; women (older woman patients), 30 mg twice daily intranasally, 52 weeks, listed as NAP peptide",reduced the increase in the size of brain ventricles
same,UPSA score vs placebo (Javitt et al.),[6]; sexes mixed,significantly more effective
same,UPSA score vs placebo (Javitt et al.),"[6]; sexes mixed, listed as NAP",significantly higher
same,UPSA between-group effect size (d),[6]; 5 mg dose,0.74
same,UPSA score vs 5 mg daily dose and placebo (Javitt et al.),"[6]; 30 mg (15 mg twice daily), sexes mixed",insignificantly different
same,UPSA between-group effect size (d),[6]; 30 mg dose,0.48
same,daily living activities in schizophrenia patients (Javitt et al.),[6]; sexes mixed,protection of daily living activities
same,gait deficits,[7],ameliorated
